Results taken from patent US10988466B2, “Heterocyclic derivatives useful as SHP2 inhibitors” (Jacobio Pharmaceuticals Co., Ltd., priority 2017, dated 2021).

Biological target: T1, SHP2 (Homo sapiens, UniProt Q06124)
T1 sequence (Q06124 1-593): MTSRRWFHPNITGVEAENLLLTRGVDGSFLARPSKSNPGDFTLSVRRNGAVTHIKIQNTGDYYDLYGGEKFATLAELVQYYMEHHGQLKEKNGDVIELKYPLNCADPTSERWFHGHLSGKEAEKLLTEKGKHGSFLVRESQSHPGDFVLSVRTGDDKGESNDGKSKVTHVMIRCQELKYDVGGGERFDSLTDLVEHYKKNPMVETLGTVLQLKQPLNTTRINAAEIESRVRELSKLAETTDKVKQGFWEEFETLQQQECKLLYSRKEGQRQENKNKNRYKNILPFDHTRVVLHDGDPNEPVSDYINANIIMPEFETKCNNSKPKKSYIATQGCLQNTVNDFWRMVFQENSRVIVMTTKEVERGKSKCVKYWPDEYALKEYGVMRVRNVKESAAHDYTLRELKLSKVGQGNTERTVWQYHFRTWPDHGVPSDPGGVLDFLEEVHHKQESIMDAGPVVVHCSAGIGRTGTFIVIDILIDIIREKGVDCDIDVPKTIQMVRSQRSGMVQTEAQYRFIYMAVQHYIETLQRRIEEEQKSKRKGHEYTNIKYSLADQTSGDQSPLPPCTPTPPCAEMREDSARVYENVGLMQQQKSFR
Assay: biochemical
Conditions: read-out: SHP2 inhibition (%)@0.1 μM
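Note: compounds preincubated 30 min at room temperature in the assay mixture, activity referenced to a 0.5% (v/v) DMSO control taken as 100%, run in triplicate.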

In order of falling inhibition at 0.1 µM:
1. CS(=O)(=O)Nc1ccc2c(c1)[C@@H](N)C1(CCN(c3cnc(Sc4ccnc(N)c4Cl)c(N)n3)CC1)C2 [Example 63, (S)-N-(1-amino-1′-(6-amino-5-((2-amino-3-chloropyridin-4-yl)thio)pyrazin-2-yl)-1,3-dihydrospiro [indene-2,4′-piperidin]-6-yl)methane-sulfonamide]  93%
2. Nc1cccc(Sc2cnc(N3CCC4(CC3)Cc3ncccc3[C@H]4N)cn2)c1Cl [Example 97, (S)-1′-(5-((3-amino-2-chlorophenyl)thio)pyrazin-2-yl)-5,7-dihydro-spiro[cyclopenta [b]pyridine-6,4′-piperidin]-5-amine]  86%
3. CN(C)c1nccc(Sc2cnc(N3CCC4(CC3)Cc3ccccc3[C@H]4N)cn2)c1Cl [Example 49, (S)-1′-(5-((3-chloro-2-(dimethylamino)pyridin-4-yl)thio)pyrazin-2-yl)-1,3-dihydrospiro[indene-2,4′-piperidin]-1-amine]  85%
4. COc1nccc(Sc2cnc(N3CCC4(CC3)Cc3ccccc3[C@H]4N)cn2)c1Cl [Example 51, (S)-1′-(5-((3-chloro-2-methoxypyridin-4-yl)thio)pyrazin-2-yl)-1,3-dihydro-spiro[indene-2,4′-piperidin]-1-amine]  85%
5. Nc1cccc(Sc2ncc(N3CCC4(CC3)Cc3ccccc3[C@H]4N)nc2N)c1Cl [Example 53, (S)-1′-(6-amino-5-((3-amino-2-chlorophenyl)thio)pyrazin-2-yl)-1,3-dihydro spiro[2,4′-piperidin]-1-amine]  84%
6. N[C@@H]1c2cccnc2CC12CCN(c1cnc(Sc3cc(F)ncc3Cl)cn1)CC2 [Example 101, (S)-1′-(5-((5-chloro-2-fluoro-pyridin-4-yl)thio)pyrazin-2-yl)-5,7-dihydrospiro[cyclopenta [b]pyridine-6,4′-piperidin]-5-amine]  83%
7. Nc1nccc(Sc2cnc(N3CCC4(CC3)Cc3ccccc3[C@H]4N)cn2)c1Cl [Example 48, (S)-1′-(5-((2-amino-3-chloropyridin-4-yl)thio)pyrazin-2-yl)-1,3-dihydro-spiro[indene-2,4′-piperidin]-1-amine]  81%
8. Nc1cccc(Sc2ncc(N3CCC4(CC3)Cc3ncccc3[C@H]4N)nc2N)c1Cl [Example 98, (S)-1′-(6-amino-5-((3-amino-2-chlorophenyl)thio)pyrazin-2-yl)-5,7-dihydrospiro [cyclopenta[b]pyridine-6,4′-piperidin]-5-amine]  81%
9. Nc1nc(N2CCC3(CC2)Cc2ncccc2[C@H]3N)cnc1Sc1cc(F)ncc1Cl [Example 102, (S)-1′-(6-amino-5-((5-chloro-2-fluoropyridin-4-yl)thio)pyrazin-2-yl)-5,7-dihydro-spiro[cyclopenta[b]pyridine-6,4′-piperidin]-5-amine]  81%
10. Nc1nc(N2CCC3(CC2)Cc2ncc(Cl)cc2[C@H]3N)cnc1Sc1ccnc(N)c1Cl [Example 73, (S)-1′-(6-amino-5-((2-amino-3-chloropyridin-4-yl)thio)pyrazin-2-yl)-3-chloro-5,7-dihydro-spiro[cyclopenta[b]pyridine-6,4′-piperidin]-5-amine]  80%
11. Nc1cccc(Sc2cnc(N3CCC4(CC3)Cc3ccccc3[C@H]4N)cn2)c1Cl [Example 50, (S)-1′-(5-((3-amino-2-chlorophenyl)thio)pyrazin-2-yl)-1,3-dihydrospiro [indene-2,4′-piperidin]-1-amine]  77%
12. Nc1nc(N2CCC3(CC2)Cc2ccc(N4CCOCC4=O)cc2[C@H]3N)cnc1Sc1ccnc(N)c1Cl [Example 62, (S)-4-(1-amino-1′-(6-amino-5-((2-amino-3-chloropyridin-4-yl)thio)pyrazin-2-yl)-1,3-dihydrospiro [indene-2,4′-piperidin]-6-yl) morpholin-3-one]  76%
13. CSc1ccc2c(c1)[C@@H](N)C1(CCN(c3cnc(Sc4ccnc(N)c4Cl)c(N)n3)CC1)C2 [Example 74, (S)-1′-(6-amino-5-((2-amino-3-chloropyridin-4-yl)thio)pyrazin-2-yl)-6-(methylthio)-1,3-dihydro-spiro[indene-2,4′-piperidin]-1-amine]  76%
14. Nc1nc(N2CCC3(CC2)Cc2ccc(C(=O)O)cc2[C@H]3N)cnc1Sc1ccnc(N)c1Cl [Example 80, (S)-1-amino-1′-(6-amino-5-((2-amino-3-chloropyridin-4-yl)thio)pyrazin-2-yl)-1,3-dihydrospiro [indene-2,4′-piperidine]-6-carboxylic acid]  75%
15. Nc1nc(N2CCC3(CC2)Cc2cc(F)c(F)c(F)c2[C@H]3N)cnc1Sc1ccnc(N)c1Cl [Example 61, (S)-1′-(6-amino-5-((2-amino-3-choropyridin-4-yl)thio)pyrazin-2-yl)-5,6,7-trifluoro-1,3-dihydro-spiro[indene-2,4′-piperidin]-1-amine]  74%
16. Nc1nc(N2CCC3(CC2)Cc2ccccc2[C@H]3N)cnc1Sc1ccnc(Cl)c1Cl [Example 66, (S)-1′-(6-amino-5-((2,3-dichloropyridin-4-yl)thio)pyrazin-2-yl)-1,3-dihydro-spiro[indene-2,4′-piperidin]-1-amine]  72%
17. CCOP(=O)(OCC)c1ccc2c(c1)[C@@H](N)C1(CCN(c3cnc(Sc4ccnc(N)c4Cl)c(N)n3)CC1)C2 [Example 90, diethyl (S)-(1-amino-1′-(6-amino-5-((2-amino-3-chloropyridin-4-yl)thio)pyrazin-2-yl)-1,3-dihydrospiro [indene-2,4′-piperidin]-6-yl) phosphonate]  71%
18. Nc1nc(N2CCC3(CC2)Cc2ccc(N4CCOCC4)cc2[C@H]3N)cnc1Sc1ccnc(N)c1Cl [Example 60, (S)-1′-(6-amino-5-((2-amino-3-chloropyridin-4-yl)thio)pyrazin-2-yl)-6-morpholino-1,3-dihydro-spiro[indene-2,4′-piperidin]-1-amine]  70%
19. COc1nccc(Sc2ncc(N3CCC4(CC3)Cc3ccccc3[C@H]4N)nc2N)c1Cl [Example 54, (S)-1′-(6-amino-5-((3-chloro-2-methoxypyridin-4-yl)thio)pyrazin-2-yl)-1,3-dihydrospiro [indene-2,4′-piperidin]-1-amine]  69%
20. Nc1nc(N2CCC3(CC2)Cc2ccc(C(=O)N4CCCCC4)cc2[C@H]3N)cnc1Sc1ccnc(N)c1Cl [Example 59, (S)-(1-amino-1′-(6-amino-5-((2-amino-3-chloropyridin-4-yl)thio)pyrazin-2-yl)-1,3-dihydrospiro [indene-2,4′-piperidin]-6-yl)(piperidin-1-yl)methanone]  69%
21. CC(=O)N1CC(F)(F)c2c(Sc3ncc(N4CCC5(CC4)Cc4ccccc4[C@H]5N)nc3N)cccc21 [Example 78, (S)-1-(4-((3-amino-5-(1-amino-1,3-dihydrospiro[indene-2,4′-piperidin]-1′-yl)pyrazin-2-yl)thio)-3,3-difluoroindolin-1-yl)ethan-1-one]  67%
22. Nc1nc(N2CCC3(CC2)Oc2ncccc2[C@H]3N)cnc1Sc1ccnc(N)c1Cl [Example 96]  66%
23. Nc1nc(N2CCC3(CC2)[C@H](N)c2ccccc2[C@H]3N)cnc1Sc1ccnc(N)c1Cl [Example 67, (1R,3R)-1′-(6-amino-5-((2-amino-3-chloropyridin-4-yl)thio)pyrazin-2-yl)-1,3-dihydrospiro[indene-2,4′-piperidine]-1,3-diamine]  63%
24. CC(C)(C)c1cc2c(s1)CC1(CCN(c3cnc(Sc4ccnc(N)c4Cl)c(N)n3)CC1)[C@@H]2N [Example 79, (S)-1′-(6-amino-5-((2-amino-3-chloropyridin-4-yl)thio)pyrazin-2-yl)-2-(tert-butyl)-4,6-dihydro-spiro[cyclopenta [b]thiophene-5,4′-piperidin]-4-amine]  58%
25. Nc1nc(N2CCC3(CC2)Cn2c(cccc2=O)[C@H]3N)cnc1Sc1ccnc(N)c1Cl [Example 70, (S)-1-amino-1′-(6-amino-5-((2-amino-3-chloropyridin-4-yl)thio)pyrazin-2-yl)-3H-spiro[indolizine-2,4′-piperidin]-5(1H)-one]  30%
26. Nc1nc(N2CCC3(CC2)c2cccnc2C[C@H]3N)cnc1Sc1ccnc(N)c1Cl [Example 72, (R)-1′-(6-amino-5-((2-amino-3-chloropyridin-4-yl)thio)pyrazin-2-yl)-6,7-dihydrospiro[cyclopenta [b]pyridine-5,4′-piperidin]-6-amine]  28%
27. CN1CCN(c2ccc3c(c2)[C@@H](N)C2(CCN(c4cnc(Sc5ccnc(N)c5Cl)c(N)n4)CC2)C3)CC1 [Example 75, (S)-1′-(6-amino-5-((2-amino-3-chloropyridin-4-yl)thio)pyrazin-2-yl)-6-(4-methylpiperazin-1-yl)-1,3-dihydrospiro [indene-2,4′-piperidin]-1-amine]  16%
28. Nc1nc(N2CCC3(CC2)Cc2cnccc2[C@@H]3N)cnc1Sc1ccnc(N)c1Cl [Example 65, (R)-1′-(6-amino-5-((2-amino-3-chloropyridin-4-yl)thio)pyrazin-2-yl)-5,7-dihydrospiro[cyclopenta [c]pyridine-6,4′-piperidin]-5-amine]  0%
